Molecular target: NR1/NR2B (Homo sapiens (Human), UniProt Q05586+Q13224)
Assay: Cell assay: FDSS Ca2+ influx inhibition in HEK293 cells expressing NR1/NR2B;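 also: Fluo-8 Ca2+ signal read on Hamamatsu FDSS 6000 after glutamate, glycine and Ca2+ challenge following 10 min compound preincubation, end/baseline fluorescence ratio compared with MK801 control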
[1] = Binned Activity, HEK293 cells expressing NR1/NR2B, Ca2+ influx, binned NR2B NAM IC50
[2] = NR2B NAM IC50, HEK293 cells expressing NR1/NR2B, Ca2+ influx

NR1/NR2B, sequence (Q13224 27-1484, other chains not shown): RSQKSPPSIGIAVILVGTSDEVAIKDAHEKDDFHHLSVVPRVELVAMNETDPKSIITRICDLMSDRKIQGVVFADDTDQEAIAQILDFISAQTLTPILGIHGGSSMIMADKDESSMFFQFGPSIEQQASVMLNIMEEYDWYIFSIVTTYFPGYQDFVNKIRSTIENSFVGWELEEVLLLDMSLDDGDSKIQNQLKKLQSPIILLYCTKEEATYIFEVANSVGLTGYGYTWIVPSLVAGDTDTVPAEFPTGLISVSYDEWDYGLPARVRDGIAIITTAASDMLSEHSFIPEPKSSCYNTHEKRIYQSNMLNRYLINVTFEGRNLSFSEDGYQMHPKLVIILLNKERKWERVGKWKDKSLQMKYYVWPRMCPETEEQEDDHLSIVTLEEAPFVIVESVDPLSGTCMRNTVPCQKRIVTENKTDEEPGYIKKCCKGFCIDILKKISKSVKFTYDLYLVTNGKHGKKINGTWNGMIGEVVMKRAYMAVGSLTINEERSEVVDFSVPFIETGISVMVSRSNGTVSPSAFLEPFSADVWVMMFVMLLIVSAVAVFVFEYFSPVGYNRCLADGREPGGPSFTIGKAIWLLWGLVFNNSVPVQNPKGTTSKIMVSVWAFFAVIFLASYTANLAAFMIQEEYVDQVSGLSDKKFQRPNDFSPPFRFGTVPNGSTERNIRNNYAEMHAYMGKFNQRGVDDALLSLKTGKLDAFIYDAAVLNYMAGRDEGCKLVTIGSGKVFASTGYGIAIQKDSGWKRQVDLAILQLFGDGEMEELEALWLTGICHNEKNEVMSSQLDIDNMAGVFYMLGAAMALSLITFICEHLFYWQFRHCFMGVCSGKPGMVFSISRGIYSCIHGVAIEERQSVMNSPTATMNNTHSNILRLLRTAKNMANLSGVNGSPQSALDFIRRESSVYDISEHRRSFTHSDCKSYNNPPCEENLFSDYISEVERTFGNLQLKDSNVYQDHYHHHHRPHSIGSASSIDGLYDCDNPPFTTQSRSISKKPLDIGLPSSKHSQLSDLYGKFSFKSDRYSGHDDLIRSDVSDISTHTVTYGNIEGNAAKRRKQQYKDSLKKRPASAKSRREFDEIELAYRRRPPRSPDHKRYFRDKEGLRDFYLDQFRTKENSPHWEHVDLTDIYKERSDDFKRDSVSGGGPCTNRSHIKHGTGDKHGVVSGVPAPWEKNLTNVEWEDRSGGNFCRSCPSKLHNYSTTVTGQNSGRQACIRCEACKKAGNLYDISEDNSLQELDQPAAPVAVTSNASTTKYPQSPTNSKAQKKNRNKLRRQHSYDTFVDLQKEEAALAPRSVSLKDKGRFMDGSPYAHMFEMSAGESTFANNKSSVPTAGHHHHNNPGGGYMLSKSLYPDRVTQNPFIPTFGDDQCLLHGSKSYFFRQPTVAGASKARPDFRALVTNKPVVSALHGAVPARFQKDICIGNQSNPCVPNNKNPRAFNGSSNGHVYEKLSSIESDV

SMILES | IC50 [1] [µM] | IC50 [2] [µM] | IC50 (Binned Activity) [µM] | IC50 (NR2B NAM IC50) [µM]
Oc1ccc(C(O)CN2C[C@@H]3C[C@@](O)(Cc4ccccc4Cl)C[C@@H]3C2)nc1 (mixture of isomers) [Example 246, rac-(3aR,5r,6aS)-5-(2-chlorobenzyl)-2-(2-hydroxy-2-(5-hydroxypyridin-2-yl)ethyl)octahydrocyclo-penta[c]pyrrol-5-ol] |  | 0.0503 |  | 
Oc1ccc(C(O)CN2C[C@@H]3C[C@@](O)(Cc4cccc(F)c4F)C[C@@H]3C2)nc1 (mixture of isomers) [Example 248, rac-(3aR,5r,6aS)-5-(2,3-difluorobenzyl)-2-(2-hydroxy-2-(5-hydroxypyridin-2-yl)ethyl)octahydrocyclo-penta[c]pyrrol-5-ol] |  | 0.0476 |  | 
Oc1ccc(C(O)CN2C[C@@H]3C[C@@](O)(c4cccnc4F)C[C@@H]3C2)nc1 (mixture of isomers) [Example 251, rac-(3aR,6aS)-5-(2-fluoropyridin-3-yl)-2-(2-hydroxy-2-(5-hydroxypyridin-2-yl)ethyl)octahydrocyclo-penta[c]pyrrol-5-ol] | > 10 | ≥ 10 |  | 
Cc1cc(F)ccc1C[C@]1(O)C[C@H]2CN(CC(O)c3ccc(O)cc3)C[C@H]2C1 (mixture of isomers) [Example 254, rac-(3aR,5r,6aS)-5-(4-fluoro-2-methylbenzyl)-2-(2-hydroxy-2-(4-hydroxyphenyl)ethyl) octahydrocyclopenta[c] pyrrol-5-ol] |  | 0.0425 |  | 
CC(O)(CN1CC2CC(O)(Cc3ccccc3)CC2C1)c1ccc(O)cc1 (racemic) [Example 280, rac-(3aR,5R,6aS)-5-benzyl-2-[2-hydroxy-2-(4-hydroxyphenyl)propyl]-octahydrocyclopenta[c] pyrrol-5-ol] | < 0.1 | 0.043 |  | 
[2H]C(O)(CN1C[C@@H]2C[C@@](O)(Cc3ccccc3)C[C@@H]2C1)c1ccc(O)cc1 (mixture of isomers) [Example 281, deuterated rac-(3aR,6aS)-5-benzyl-2-((S)-2-hydroxy-2-(4-hydroxyphenyl)ethyl) octahydrocyclopenta [c]pyrrol-5-ol] | < 0.1 | 0.0174 |  | 
CC(=O)Nc1ccc(C(O)CN2C[C@@H]3C[C@@](O)(Cc4ccccc4)C[C@@H]3C2)cn1 (mixture of isomers) [Example 283, rac-N-(5-(2-((3aR,5r,6aS)-5-benzyl-5-hydroxyhexahydrocyclo-penta[c]pyrrol-2(1H)-yl)-1-hydroxyethyl)pyridin-2-yl)acetamide] | > 10 | ≥ 10 |  | 
CC(C)(C)C(=O)Nc1ccc(C(O)CN2C[C@@H]3C[C@@](O)(Cc4ccccc4)C[C@@H]3C2)cn1 (mixture of isomers) [Example 286, rac-N-(5-(2-(5-benzyl-5-hydroxyhexahydrocyclo-penta[c]pyrrol-2(1H)-yl)-1-hydroxyethyl)pyridin-2-yl)pivalamide] | > 10 | ≥ 10 |  | 
OC(CN1C[C@@H]2C[C@@](O)(Cc3ccccc3)C[C@@H]2C1)c1ccc(Cl)cc1Cl (mixture of isomers) [Example 287, rac-(3aR,5r,6aS)-5-benzyl-2-(2-(2,4-dichlorophenyl)-2-hydroxyethyl)octahydro-cyclopenta[c]pyrrol-5-ol] | > 10 | ≥ 10 |  | 
OC(CN1C[C@@H]2C[C@@](O)(Cc3ccccc3)C[C@@H]2C1)c1cccc(C(F)(F)F)c1 (mixture of isomers) [Example 288, rac-(3aR,5r,6aS)-benzyl-2-(2-hydroxy-2-(3-(trifluoromethyl)phenyl)ethyl)octahydrocyclo-penta[c]pyrrol-5-ol] | > 10 | ≥ 10 |  | 
CC(C(=O)c1ccc(O)cc1)N1C[C@@H]2C[C@@](O)(Cc3ccccc3)C[C@@H]2C1 (mixture of isomers) [Example 293, rac-2-((3aR,5r,6aS)-5-benzyl-5-hydroxyhexahydrocyclo-penta[c]pyrrol-2(1H)-yl)-1-(4-hydroxyphenyl)propan-1-one] |  | 0.1 |  | 
CC(C(=O)c1ccc(O)cc1)N1C[C@H]2CC(Cc3ccccc3)C[C@H]2C1 (mixture of isomers) [Example 296, rac-2-((3aR,6aS)-5-benzylhexahydrocyclo-penta[c]pyrrol-2(1H)-yl)-1-(4-hydroxyphenyl)propan-1-one] | 0.1 to 1 | 0.125 |  | 
OC(CN1C[C@H]2CC(Cc3ccccc3)C[C@H]2C1)c1cccc(C(F)(F)F)c1 (mixture of isomers) [Example 309, rac-2-((3aR,6aS)-5-benzylhexahydrocyclo-penta[c]pyrrol-2(1H)-yl)-1-(3-(trifluoromethyl)phenyl) ethanol] | > 10 | ≥ 10 |  | 
Oc1ccc(C(O)CN2C[C@@H]3C[C@](F)(Cc4ccccc4)C[C@@H]3C2)cc1 (mixture of isomers) [Example 311, rac-4-(2-((3aR,5s,6aS)-5-benzyl-5-fluorohexahydrocyclo-penta[c]pyrrol-2(1H)-yl)-1-hydroxyethyl) phenol] | 0.1 to 1 | 0.448 |  | 
CC(C(=O)c1ccc(O)cc1)N1C[C@@H]2C[C@](F)(Cc3ccccc3)C[C@@H]2C1 (mixture of isomers) [Example 317, rac-2-((3aR,5s,6aS)-5-benzyl-5-fluoro-hexahydrocyclopen-ta[c]pyrrol-2(1H)-yl)-1-(4-hydroxyphenyl)propan-1-one] |  | 0.284 |  | 
CC(C(O)c1ccc(O)cc1)N1C[C@@H]2C[C@](F)(Cc3ccccc3)C[C@@H]2C1 (mixture of isomers) [Example 318, rac-4-(2-((3aR,5s,6aS)-5-benzyl-5-fluoro-hexahydrocyclopen-ta[c]pyrrol-2(1H)-yl)-1-hydroxypropyl)phenol] |  | 12.8 |  | 
CC(C(=O)c1ccc(O)cc1)N1C[C@@H]2C[C@@](O)(CCc3ccccc3)C[C@@H]2C1 (mixture of isomers) [Example 319, rac-2-(5-hydroxy-5-phenethylhexa-hydrocyclo-penta[c]pyrrol-2(1H)-yl)-1-(4-hydroxyphenyl)propan-1-one] |  | 0.497 |  | 
CC(C(O)c1ccc(O)cc1)N1C[C@@H]2C[C@@](O)(CCc3ccccc3)C[C@@H]2C1 (mixture of isomers) [Example 320, rac-2-(1-hydroxy-1-(4-hydroxyphenyl)propan-2-yl)-5-phenethyl-octahydrocyclo-panta[c]pyrrol-5-ol] |  | 2.05 |  | 
Oc1ccc(C(O)CN2C[C@@H]3C[C@@](O)(CCc4ccccc4)C[C@@H]3C2)cc1 (mixture of isomers) [Example 321, rac-2-(2-hydroxy-2-(4-hydroxyphenyl)ethyl)-5-phenethyloctahydro-cyclopenta[c] pyrrol-5-ol] | > 10 | ≥ 10 |  | 
CC(C(=O)c1ccc(O)cc1)N1C[C@H]2CC(CCc3ccccc3)C[C@H]2C1 (mixture of isomers) [Example 322, rac-1-(4-hydroxy-phenyl)2-[(5R)-5-(2-phenylethyl)-octahydrocyclopenta[c]pyrrol-2-yl]propan-1-one] |  |  | 0.1 to 1 | 0.533
Oc1ccc(C(O)CN2C[C@H]3CN(Cc4ccccc4)C[C@H]3C2)cc1 (mixture of isomers) [Example 327, rac-4-(2-(5-benzylhexahydropyrrolo [3,4-c]pyrrol-2(1H)-yl)-1-hydroxyethyl)phenol] | 0.1 to 1 | 0.139 |  | 

Continued, in another order:

IC50 [1] [µM] | IC50 [2] [µM] | SMILES | IC50 (Binned Activity) [µM] | IC50 (NR2B NAM IC50) [µM]
< 0.1 | 0.0238 | Oc1ccc(C(O)CN2C[C@@H]3C[C@@](O)(Cc4ccc(F)cc4F)C[C@@H]3C2)cc1 (mixture of isomers) [Example 245, rac-5-(2,4-difluorobenzyl)-2-(2-hydroxy-2-(4-hydroxyphenyl)ethyl) octahydrocyclopenta[c] pyrrol-5-ol] |  | 
 | 0.0315 | Oc1ccc(C(O)CN2C[C@@H]3C[C@@](O)(Cc4ccc(F)c(F)c4)C[C@@H]3C2)cc1 (mixture of isomers) [Example 253, rac-(3aR,5r,6aS)-5-(3,4-difluorobenzyl)-2-(2-hydroxy-2-(4-hydroxyphenyl)ethyl) octahydrocyclopenta[c] pyrrol-5-ol] |  | 
 | 0.0224 | Oc1ccc(C(O)CN2C[C@H]3CC(Cc4ccccc4)C[C@H]3C2)nc1 (mixture of isomers) [Example 298, rac-6-(2-{5-benzyl-octahydrocyclopenta[c]pyrrol-2-yl}-1-hydroxyethyl)pyridin-3-ol] |  | 
< 0.1 | 0.0139 | Oc1ccc(C(O)CN2C[C@H]3CC(Cc4ccccc4)C[C@H]3C2)cc1 (mixture of isomers) [Example 300, rac-4-(2-((3aR,6aS)-5-benzylhexahydrocyclo-penta[c]pyrrol-2(1H)-yl)-1-hydroxyethyl) phenol] |  | 
 | 0.0122 | Oc1ccc(C(O)CN2C[C@H]3C[C@@H](Cc4ccccc4)C[C@H]3C2)cc1F (mixture of isomers) [Example 301, rac-4-{2-[(3aR,5S,6aS)-5-benzyl-octahydrocyclopenta[c]pyrrol-2-yl]-1-hydroxyethyl}-2-fluorophenol] |  | 
 | 0.0201 | Oc1ccc(C(O)CN2C[C@H]3C[C@H](Cc4ccccc4)C[C@H]3C2)cc1F (mixture of isomers) [Example 302, rac-4-{2-[(3aR,5R,6aS)-5-benzyl-octahydrocyclopenta[c]pyrrol-2-yl]-1-hydroxyethyl}-2-fluorophenol] |  | 
< 0.1 | 0.0168 | Oc1ccc(C(O)CN2C[C@H]3C[C@@H](Cc4ccccc4)C[C@H]3C2)cc1 (mixture of isomers) [Example 304, rac-4-{2-[(3aR,5S,6aS)-5-benzyl-octahydrocyclopenta[c]pyrrol-2-yl]-1-hydroxyethyl}phenol] |  | 
< 0.1 | 0.0117 | Oc1ccc(C(O)CN2C[C@H]3C[C@H](Cc4ccccc4)C[C@H]3C2)cc1 (mixture of isomers) [Example 306, rac-4-{2-[(3aR,5R,6aS)-5-benzyl-octahydrocyclopenta[c]pyrrol-2-yl]-1-hydroxyethyl}phenol] |  | 
< 0.1 | 0.0269 | Oc1ccc(C(O)CN2C[C@@H]3C[C@@](F)(Cc4ccccc4)C[C@@H]3C2)cc1 (mixture of isomers) [Example 313, rac-4-(2-((3aR,5r,6aS)-5-benzyl-5-fluoro-hexahydrocyclopen-ta[c]pyrrol-2(1H)-yl)-1-hydroxyethyl)phenol] |  | 
< 0.1 | 0.0364 | Oc1ccc(C(O)CN2C[C@@H]3C[C@](F)(Cc4ccccc4)C[C@@H]3C2)cc1F (mixture of isomers) [Example 316, rac-4-(2-((3aR,5s,6aS)-5-benzyl-5-fluoro-hexahydrocyclopen-ta[c]pyrrol-2(1H)-yl)-1-hydroxyethyl)-2-fluorophenol] |  | 
